In patent US20040024024A1, “Aromatic sulfone hydroxamates and their use as protease inhibitors” (priority 2001, published 2004) one finds Ki data, which are given here for 38 compounds.

Experiment in all cases: In vitro MMP inhibition, Ki determination (fluorogenic substrate II)
Assay type in all cases: biochemical
Common to all, as to details: value in parentheses

The target in experiment [1] is T1, Human recombinant MMP-1 (Homo sapiens, UniProt P03956).
T1 construct: made in house; host or cells: MMP-1-transfected HT-1080 cells (spent media)
T1 sequence (P03956 100-469): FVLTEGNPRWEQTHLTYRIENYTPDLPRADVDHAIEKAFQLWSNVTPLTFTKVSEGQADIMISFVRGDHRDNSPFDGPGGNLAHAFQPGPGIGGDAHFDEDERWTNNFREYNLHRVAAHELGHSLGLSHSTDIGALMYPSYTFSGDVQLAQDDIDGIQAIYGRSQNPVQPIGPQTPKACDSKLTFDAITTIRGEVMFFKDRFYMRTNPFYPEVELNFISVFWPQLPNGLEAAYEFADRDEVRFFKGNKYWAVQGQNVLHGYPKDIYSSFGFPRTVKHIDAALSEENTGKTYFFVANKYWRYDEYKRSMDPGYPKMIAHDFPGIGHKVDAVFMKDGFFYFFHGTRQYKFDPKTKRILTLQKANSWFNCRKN
In short, it runs like this: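 Activated human recombinant MMP-1 (APMA- or trypsin-activated; proenzyme from transfected HT-1080 cells) incubated 1 hr at room temperature with 4 μM MCA/Dpa fluorogenic substrate II at or below Km in Tris buffer pH 7.5 with CaCl2. Fluorescence ex 330/em 420 nm; Ki from Morrison-equation non-linear regression, uncorrected for substrate.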

Experiment [2] addresses T2, Human recombinant MMP-9 (Homo sapiens, UniProt P14780).
T2 construct: made in house; host or cells: MMP-9-transfected HT1080 cells (spent media)
The gist of the method:
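MMP-9 proenzyme purified from transfected HT1080 cell media, activated with APMA, trypsin or recombinant MMP-3; hydroxamates diluted in pH 7.5 Tris/NaCl/CaCl2 buffer. Cleavage of 4 μM MCA/Dpa substrate II followed by fluorescence (ex 330/em 420 nm), 1 h at room temperature. Ki from Morrison-equation fit, substrate at/below Km, uncorrected.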

Experiment [3] concerns the target T3, Human recombinant MMP-13 (Homo sapiens, UniProt P45452).
T3 construct: made in house; host or cells: baculovirus / insect cells
In short, it runs like this:
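Baculovirus-expressed proenzyme, APMA-activated; 4 μM fluorogenic MCA/Dpa peptide substrate (II), at or below Km, in Tris buffer pH 7.5 with CaCl2, 1 hr at room temperature. Fluorescence at 330/420 nm; Ki from non-linear regression with Morrison's equation, not corrected for substrate.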

Bounds are passed on as bounds.

T2 sequence (P14780 107-707 limits assumed): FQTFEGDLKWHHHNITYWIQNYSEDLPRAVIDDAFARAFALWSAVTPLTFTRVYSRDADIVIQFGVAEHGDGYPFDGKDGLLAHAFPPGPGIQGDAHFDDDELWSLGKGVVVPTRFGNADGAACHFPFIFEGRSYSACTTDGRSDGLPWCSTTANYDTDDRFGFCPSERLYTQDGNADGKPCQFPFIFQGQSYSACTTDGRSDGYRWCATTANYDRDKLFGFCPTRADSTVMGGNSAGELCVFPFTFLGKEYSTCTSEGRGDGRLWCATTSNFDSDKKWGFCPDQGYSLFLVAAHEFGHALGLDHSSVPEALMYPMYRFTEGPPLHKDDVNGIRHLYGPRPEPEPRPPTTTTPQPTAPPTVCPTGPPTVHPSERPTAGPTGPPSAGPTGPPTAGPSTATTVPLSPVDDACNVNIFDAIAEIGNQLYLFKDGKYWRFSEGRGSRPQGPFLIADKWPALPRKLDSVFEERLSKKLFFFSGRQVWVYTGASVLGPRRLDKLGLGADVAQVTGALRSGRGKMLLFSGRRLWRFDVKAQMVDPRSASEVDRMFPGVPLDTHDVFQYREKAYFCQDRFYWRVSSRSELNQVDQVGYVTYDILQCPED

A word on the Ki: it is a measure of affinity in units of concentration, obtained from inhibition or displacement. For `COCCN1CCC(C(=O)NO)(S(=O)(=O)c2ccc(OCCCc3cccc(-c4ccccc4F)c3)cc2)CC1` [Example 512], the Ki is above 10000 nM in experiment [1], 25.7 nM in experiment [2] and 1.07 nM in experiment [3].

With `COCCN1CCC(C(=O)NO)(S(=O)(=O)c2ccc(OCCCc3cccc(-c4ccc(F)cc4F)c3)cc2)CC1` [Example 513], the Ki in experiment [1] was above 10000 nM; in experiment [2], 255 nM; in experiment [3], 0.98 nM.

`COCCN1CCC(C(=O)NO)(S(=O)(=O)c2ccc(OCCCc3cccc(-c4ccc(C#N)cc4)c3)cc2)CC1` [Example 514]: the results for the inhibition constant (Ki) in experiment [1], in experiment [2] and in experiment [3] were above 10000 nM, 224 nM and 0.28 nM, respectively.

Turning to `CCN1CCC(C(=O)NO)(S(=O)(=O)c2ccc(OCCCc3cccc(-c4ccc(Cl)cc4)c3)cc2)CC1` [Example 526], the Ki in experiment [1] was above 10000 nM; in experiment [2], 2070 nM; in experiment [3], 3.96 nM.

For `Cc1ccc(NC(=O)CCCOc2ccc(S(=O)(=O)C3(C(=O)NO)CCOCC3)cc2)cc1I` [Example 527], the Ki in experiment [1] was 5100 nM; in experiment [2], 30.4 nM; in experiment [3] it was 0.044 nM.

Turning to `CCC(=O)c1cccc(CCCOc2ccc(S(=O)(=O)C3(C(=O)NO)CCOCC3)cc2)c1` [Example 528], the values for the Ki in experiment [1], in experiment [2] and in experiment [3] were above 10000 nM, 238 nM and 2.57 nM, respectively.

`O=C(NO)C1(S(=O)(=O)c2ccc(OCCCc3cccc(-c4ccc(O)cc4)c3)cc2)CCOCC1` [Example 529]: the Ki is above 10000 nM in experiment [1], 1870 nM in experiment [2] and 20.2 nM in experiment [3].

Turning to `O=C(NO)C1(S(=O)(=O)c2ccc(OCCCc3cccc(-c4cccc(O)c4)c3)cc2)CCOCC1` [Example 530], the Ki is above 10000 nM in experiment [1], 220 nM in experiment [2] and 7.33 nM in experiment [3].

Turning to `O=C(NO)C1(S(=O)(=O)c2ccc(OCCc3ccc(-c4ccc(O)cc4)cc3)cc2)CCOCC1` [Example 531], the Ki in experiment [1] is above 10000 nM; in experiment [2], 774 nM; in experiment [3], 2.72 nM.

As to `O=C(NO)C1(S(=O)(=O)c2ccc(OCCc3ccc(-c4cccc(O)c4)cc3)cc2)CCOCC1` [Example 532], the Ki in experiment [1] is above 10000 nM; in experiment [2] it was 1320 nM; in experiment [3] it was 1.02 nM.

As to `CCCCc1ccc(CCCOc2ccc(S(=O)(=O)C3(C(=O)NO)CCOCC3)cc2)cn1` [Example 533], the Ki in experiment [1] was above 10000 nM; in experiment [2], 141 nM; in experiment [3], 0.226 nM.

Consider `CCCc1ccc(CCCOc2ccc(S(=O)(=O)C3(C(=O)NO)CCOCC3)cc2)cn1` [Example 534], for which the Ki is above 10000 nM in experiment [1], 324 nM in experiment [2] and 0.493 nM in experiment [3].

As to `CCc1ccc(CCCOc2ccc(S(=O)(=O)C3(C(=O)NO)CCOCC3)cc2)cn1` [Example 535], the Ki in experiment [1] was above 10000 nM; in experiment [2], 128 nM; in experiment [3], 0.261 nM.

Consider `CN1CCC(C(=O)NO)(S(=O)(=O)c2ccc(SCCNC(=O)c3cc4ccccc4o3)cc2)CC1` [Example 536], for which the Ki in experiment [1] is above 10000 nM; in experiment [2], 3400 nM; in experiment [3] it was 3.4 nM.

As for `COCCN1CCC(C(=O)NO)(S(=O)(=O)c2ccc(OCCc3cccc(-c4ccncc4)c3)cc2)CC1` [Example 538], the Ki in experiment [1] is above 10000 nM; in experiment [2], 117 nM; in experiment [3] it was 0.184 nM.

For the compound `COCCN1CCC(C(=O)NO)(S(=O)(=O)c2ccc(OCCc3cccc(-c4cccnc4)c3)cc2)CC1` [Example 539], the Ki in experiment [1] amounted to 9130 nM; in experiment [2], 85.5 nM; in experiment [3], 0.21 nM.

As to `COCCN1CCC(C(=O)NO)(S(=O)(=O)c2ccc(OCCc3cccc(-c4ccccc4F)c3)cc2)CC1` [Example 540], the values for the Ki in experiment [1], in experiment [2] and in experiment [3] were above 10000 nM, 689 nM and 0.58 nM, respectively.

As to `O=C(NCCSc1ccc(S(=O)(=O)C2(C(=O)NO)CCN(C3CC3)CC2)cc1)c1nc2ccccc2s1` [Example 541], the values for the Ki in experiment [1], in experiment [2] and in experiment [3] were above 10000 nM, 269 nM and 0.24 nM, respectively.

For the compound `O=C(NCCSc1ccc(S(=O)(=O)C2(C(=O)NO)CCN(C3CC3)CC2)cc1)c1cc2ccccc2o1` [Example 542], the Ki in experiment [1] was above 10000 nM; in experiment [2], 922 nM; in experiment [3] it was 0.86 nM.

On to `COCCN1CCC(C(=O)NO)(S(=O)(=O)c2ccc(OCCc3ccc(-c4ccc(C#N)cc4)cc3)cc2)CC1` [Example 543], for which the Ki in experiment [1] is above 10000 nM; in experiment [2], 207 nM; in experiment [3], 0.23 nM.

For `COCCN1CCC(C(=O)NO)(S(=O)(=O)c2ccc(OCCc3cccc(-c4ccc(F)cc4)c3)cc2)CC1` [Example 544], the Ki in experiment [1] is above 10000 nM; in experiment [2], 787 nM; in experiment [3] it was 0.898 nM.

With `COCCN1CCC(C(=O)NO)(S(=O)(=O)c2ccc(OCCc3cccc(-c4cccc(F)c4)c3)cc2)CC1` [Example 545], the Ki is above 10000 nM in experiment [1], 923 nM in experiment [2] and 1.11 nM in experiment [3].

As for `COCCN1CCC(C(=O)NO)(S(=O)(=O)c2ccc(OCCc3cccc(-c4ccc(F)cc4F)c3)cc2)CC1` [Example 546], the inhibition constant (Ki) was above 10000 nM in experiment [1], 1270 nM in experiment [2] and 1.06 nM in experiment [3].

Turning to `COCCN1CCC(C(=O)NO)(S(=O)(=O)c2ccc(OCCc3cccc(-c4ccc(Cl)cc4)c3)cc2)CC1` [Example 547], the Ki was above 10000 nM in experiment [1], 1860 nM in experiment [2] and 2.28 nM in experiment [3].

For the compound `COCCN1CCC(C(=O)NO)(S(=O)(=O)c2ccc(OCCc3cccc(-c4ccccn4)c3)cc2)CC1` [Example 548], the inhibition constant Ki is above 10000 nM in experiment [1], 279 nM in experiment [2] and 0.38 nM in experiment [3].

Turning to `COCCN1CCC(C(=O)NO)(S(=O)(=O)c2ccc(OCCc3cccc(-c4ccc(F)c(F)c4)c3)cc2)CC1` [Example 549], the inhibition constant (Ki) in experiment [1] is above 10000 nM; in experiment [2] it was 1770 nM; in experiment [3], 1.87 nM.

`CCCc1ccc(COc2ccc(S(=O)(=O)C3(C(=O)NO)CCOCC3)cc2)cn1` [Example 550]: the Ki in experiment [1] was above 10000 nM; in experiment [2], 7.51 nM; in experiment [3], 0.52 nM.

In the case of `CCCCc1ccc(COc2ccc(S(=O)(=O)C3(C(=O)NO)CCOCC3)cc2)cn1` [Example 551], the Ki in experiment [1] is above 10000 nM; in experiment [2], 48.2 nM; in experiment [3], 0.62 nM.

For `CCc1ccc(COc2ccc(S(=O)(=O)C3(C(=O)NO)CCOCC3)cc2)cn1` [Example 552], the Ki in experiment [1] is above 10000 nM; in experiment [2] it was 2.22 nM; in experiment [3], 1.78 nM.

Take `COCCN1CCC(C(=O)NO)(S(=O)(=O)c2ccc(OCCNC(=O)c3cc4ccccc4o3)cc2)CC1` [Example 553]: the Ki in experiment [1] was above 10000 nM; in experiment [2], 71.2 nM; in experiment [3] it was 0.259 nM.

As for `O=C(NO)C1(S(=O)(=O)c2ccc(OCCOc3cncnc3)cc2)CCOCC1` [Example 554], the Ki in experiment [1] is above 10000 nM; in experiment [2], 442 nM; in experiment [3] it was 14.5 nM.

Regarding `O=C(NO)C1(S(=O)(=O)c2ccc(OCCCOCc3ccncc3)cc2)CCOCC1` [Example 555], the Ki was above 10000 nM in experiment [1], 50 nM in experiment [2] and 0.261 nM in experiment [3].

As to `O=C(NO)C1(S(=O)(=O)c2ccc(OCCc3ccccn3)cc2)CCOCC1` [Example 556], the Ki came to 8970 nM in experiment [1], 212 nM in experiment [2] and 53.2 nM in experiment [3].

For `O=C(NO)C1(S(=O)(=O)c2ccc(OCCc3cccnc3)cc2)CCOCC1` [Example 557], the inhibition constant Ki is above 10000 nM in experiment [1], 33.6 nM in experiment [2] and 3.68 nM in experiment [3].

Regarding `O=C(NO)C1(S(=O)(=O)c2ccc(OCCCOc3cncnc3)cc2)CCOCC1` [Example 559], the Ki in experiment [1] was above 10000 nM; in experiment [2], 57.6 nM; in experiment [3] it was 1.51 nM.

For `O=C(NO)C1(S(=O)(=O)c2ccc(OCCCOc3cccnc3)cc2)CCOCC1` [Example 560], the figures for the Ki in experiment [1], in experiment [2] and in experiment [3] were above 10000 nM, 7.17 nM and 0.616 nM, respectively.

As to `O=C(NCCOc1ccc(S(=O)(=O)C2(C(=O)NO)CCOCC2)cc1)c1c[nH]c2ccccc12` [Example 562], the results for the Ki in experiment [1], in experiment [2] and in experiment [3] were 2740 nM, 786 nM and 2.97 nM, respectively.

For the compound `O=C(NCCSc1ccc(S(=O)(=O)C2(C(=O)NO)CCOCC2)cc1)c1nc2ccccc2s1` [Example 598], the Ki is above 10000 nM in experiment [1], 705 nM in experiment [2] and 0.27 nM in experiment [3].
